According to patent US9901592B2 (priority 2008, dated 2018):
Values after ≈ are worked out from the molar mass of the structure shown. Like-named read-outs stand apart in the source and are kept apart here.

What was measured:
S. pyogenes [1] = format: cell-based; design: MIC: unit not given beside the values; conditions: for MIC50 / MIC90: Streptococcus pyogenes, Macr-R
M. pneumoniae = experiment: microbe, parasite or virus in culture; format: cell-based; conditions: Mycoplasmoides pneumoniae
U. parvum = experiment: MIC testing in 10B broth (colour change); format: cell-based, Ureaplasma parvum; conditions: U. parvum (10 isolates); for MIC50 / MIC90: Ureaplasma parvum; for MIC50: read-out: MIC50; for MIC90: read-out: MIC90
S. pneumoniae [2] = experiment: microbe, parasite or virus in culture; format: cell-based; conditions: for MIC: Streptococcus pneumoniae
S. pyogenes 3029 = experiment: Intraperitoneal (IP) mouse infection model (ED50); format: in vivo; conditions: Streptococcus pyogenes, MAC-R S. pyogenes 3029
streptococci = experiment: organism not typed; format: cell-based
S. pneumoniae [3] = experiment: mouse systemic infection model (PD50); format: in vivo
S. pyogenes [4] = experiment: mouse systemic infection model (PD50); format: in vivo
S. pneumoniae [5] = experiment: mouse subcutaneous abscess model; format: in vivo; conditions: for average log10 CFU/gram of abscess: S. pneumoniae 1629, 10 mg/Kg PO
Description: Example. Efficacy was evaluated in several infection models. […] PD50s were determined 24 hr post infection. CEM-101 was further evaluated in a subcutaneous abscess mouse model against S. pneumoniae. CD-1 female mice were infected via SC injection of bacteria mixed with cyclodextran beads. Two hr post infection, mice received a single oral dose of CEM 101 or control agents. At 48 hr post dose, mice were euthanized, abscesses aseptically removed and bacteria enumerated. CFU per abscess was determined and compared to the untreated control. […] 24 hr post treatment, the thighs were processed and CFU/gram of thigh determined.
(§1) Example. Mouse Subcutaneous Abscess. Bacteria were prepared from an overnight plate culture by re-suspending in saline and adjusting the suspension to a 0.1 OD at 625 nm of a 1:10 dilution. The adjusted bacterial suspension was mixed 1:2 with cyclodextran beads prepared as per package instructions. The right flanks of the mice were shaven and injected subcutaneously with 0.2 ml of the bacterial inoculum. Two hours post infection mice were treated via oral gavage with either test article or control drug. 48 hours post infection, mice were euthanized, abscesses aseptically removed, homogenized, serially diluted and plated on bacterial growth agar. After overnight incubation, colonies were counted and CFUs/gram of abscess were determined.
Example. The ability of CEM101 to reduce the microbial load in abscess infection model was also assessed against S. pneumoniae isolates.

S. pyogenes ATCC 8668 = experiment: mouse subcutaneous abscess model; format: in vivo; conditions: 48 hr. post infection
Description: as §1
Example. Mouse Subcutaneous Abscess˜S. pyogenes ATCC 8668 (Average Log10 CFU/gram of Abscess). Abscess processing 48 hours post infection.

[6] = system: viridans group streptococci (VGS); format: cell-based; conditions: VGS (51)
H. influenzae ATCC 49247 = experiment: post-antibiotic effect (PAE) testing

CC[C@H]1OC(=O)[C@H](C)[C@@H](O[C@H]2C[C@@](C)(OC)[C@@H](O)[C@H](C)O2)[C@H](C)[C@@H](O[C@@H]2O[C@H](C)C[C@H](N(C)C)[C@H]2O)[C@](C)(O)C[C@@H](C)CN(C)[C@H](C)[C@@H](O)[C@]1(C)O [AZI, azithromycin]
MIC (S. pyogenes [1]; MAC-R S. pyogenes 3029): (>64) | MIC50 (S. pyogenes [1]; S. pyogenes TEL R, 10 strains): > 32 µg/mL | MIC90 (S. pyogenes [1]; S. pyogenes TEL R, 10 strains): > 32 µg/mL | MIC50 (S. pyogenes [1]; S. pyogenes TEL S, 30 strains): > 32 µg/mL | MIC90 (S. pyogenes [1]; S. pyogenes TEL S, 30 strains): > 32 µg/mL | MIC50 (M. pneumoniae): 0.25 ng/mL (≈ 0.334 nM) | MIC90 (M. pneumoniae): 0.0005 µg/mL (≈ 0.668 nM) | MIC Range (U. parvum): 0.5 to 4 µg/mL | MIC50 (U. parvum): 2 µg/mL (≈ 2670 nM) | MIC90 (U. parvum): 4 µg/mL (≈ 5340 nM) | strains with resistant clones / strains tested (S. pneumoniae [2]; S. pneumoniae): 3/4 | MIC (S. pneumoniae [2]; read-out: Initial MIC, strain 1077 Macrolide-S, parent): 0.03 µg/mL (≈ 40.1 nM) | MIC (S. pneumoniae [2]; read-out: Initial MIC, strain 1635 Macrolide-R [erm(A)], parent): 2 µg/mL (≈ 2670 nM) | MIC (S. pneumoniae [2]; read-out: Initial MIC, strain 3665 Macrolide-R [mef(A)], parent): 8 µg/mL (≈ 10700 nM) | MIC (S. pneumoniae [2]; read-out: Initial MIC, strain 7127 Macrolide-S [S20N in L4, A105V in L22], parent): 0.06 µg/mL (≈ 80.1 nM) | MIC (S. pneumoniae [2]; read-out: MIC of parents of resistant clones, S. pneumoniae (CEM-101: 7 strains)): 0.03 to 2 µg/mL | MIC (S. pneumoniae [2]; read-out: Parental MICs, S. pneumoniae, 8 strains with varying resistotypes): 0.03 to 8 µg/mL (≈ 40.1 to 10700 nM) | MIC (S. pneumoniae [2]; read-out: Selected Resistance MIC, strain 3665 Macrolide-R [mef(A)], after serial passages in the drug): 16 µg/mL (≈ 21400 nM) | MIC (S. pneumoniae [2]; read-out: Selected Resistance MIC, strain 7127 Macrolide-S [S20N in L4, A105V in L22], after serial passages in the drug): 0.5 µg/mL (≈ 668 nM) | days until resistant clones (MIC increase) (S. pneumoniae [2]; daily passages, min. 14, max. 50): 14 to 29 days | Retest MIC after 10 Antibiotic-free Subcultures (S. pneumoniae [2]; strain 24 Macrolide-R [erm(B)], clone selected with CEM-101): >64 µg/mL | Retest MIC after 10 Antibiotic-free Subcultures (S. pneumoniae [2]; strain 24 Macrolide-R [erm(B)], clone selected with TEL): >64 µg/mL | Retest MIC after 10 Antibiotic-free Subcultures (S. pneumoniae [2]; strain 1076 Macrolide-R [erm(B)&mef(A)], clone selected with CEM-101): >64 µg/mL | Retest MIC after 10 Antibiotic-free Subcultures (S. pneumoniae [2]; strain 1076 Macrolide-R [erm(B)&mef(A)], clone selected with TEL): >64 µg/mL | Retest MIC after 10 Antibiotic-free Subcultures (S. pneumoniae [2]; strain 1077 Macrolide-S, clone selected with AZI): >64 µg/mL | Retest MIC after 10 Antibiotic-free Subcultures (S. pneumoniae [2]; strain 1077 Macrolide-S, clone selected with CEM-101): 0.03 µg/mL | Retest MIC after 10 Antibiotic-free Subcultures (S. pneumoniae [2]; strain 1077 Macrolide-S, clone selected with CLN): >64 µg/mL | Retest MIC after 10 Antibiotic-free Subcultures (S. pneumoniae [2]; strain 1077 Macrolide-S, clone selected with TEL): >64 µg/mL | Retest MIC after 10 Antibiotic-free Subcultures (S. pneumoniae [2]; strain 1635 Macrolide-R [erm(A)], clone selected with AZI): >64 µg/mL | Retest MIC after 10 Antibiotic-free Subcultures (S. pneumoniae [2]; strain 1635 Macrolide-R [erm(A)], clone selected with CEM-101): 4 µg/mL | Retest MIC after 10 Antibiotic-free Subcultures (S. pneumoniae [2]; strain 1635 Macrolide-R [erm(A)], clone selected with CLN): 4 µg/mL | Retest MIC after 10 Antibiotic-free Subcultures (S. pneumoniae [2]; strain 1635 Macrolide-R [erm(A)], clone selected with CLR): >64 µg/mL | Retest MIC after 10 Antibiotic-free Subcultures (S. pneumoniae [2]; strain 2686 Macrolide-R [L4 mutation], clone selected with CEM-101): >64 µg/mL | Retest MIC after 10 Antibiotic-free Subcultures (S. pneumoniae [2]; strain 2686 Macrolide-R [L4 mutation], clone selected with CLR): >64 µg/mL | Retest MIC after 10 Antibiotic-free Subcultures (S. pneumoniae [2]; strain 2686 Macrolide-R [L4 mutation], clone selected with TEL): >64 µg/mL | Retest MIC after 10 Antibiotic-free Subcultures (S. pneumoniae [2]; strain 3009 Macrolide-R [23SrRNA mutation], clone selected with CEM-101): >64 µg/mL | Retest MIC after 10 Antibiotic-free Subcultures (S. pneumoniae [2]; strain 3009 Macrolide-R [23SrRNA mutation], clone selected with CLR): >64 µg/mL | Retest MIC after 10 Antibiotic-free Subcultures (S. pneumoniae [2]; strain 3665 Macrolide-R [mef(A)], clone selected with CEM-101): 16 µg/mL | Retest MIC after 10 Antibiotic-free Subcultures (S. pneumoniae [2]; strain 3665 Macrolide-R [mef(A)], clone selected with CLR): 8 µg/mL | Retest MIC after 10 Antibiotic-free Subcultures (S. pneumoniae [2]; strain 3665 Macrolide-R [mef(A)], clone selected with TEL): 4 µg/mL | Retest MIC after 10 Antibiotic-free Subcultures (S. pneumoniae [2]; strain 7127 Macrolide-S [S20N in L4, A105V in L22], clone selected with AZI): 1 µg/mL | Retest MIC after 10 Antibiotic-free Subcultures (S. pneumoniae [2]; strain 7127 Macrolide-S [S20N in L4, A105V in L22], clone selected with CEM-101): 0.06 µg/mL | Retest MIC after 10 Antibiotic-free Subcultures (S. pneumoniae [2]; strain 7127 Macrolide-S [S20N in L4, A105V in L22], clone selected with CLN): 0.03 µg/mL | Retest MIC after 10 Antibiotic-free Subcultures (S. pneumoniae [2]; strain 7127 Macrolide-S [S20N in L4, A105V in L22], clone selected with CLR): >64 µg/mL | Retest MIC after 10 Antibiotic-free Subcultures (S. pneumoniae [2]; strain 7127 Macrolide-S [S20N in L4, A105V in L22], clone selected with TEL): 0.06 µg/mL | ED50 (S. pyogenes 3029): > 150 mg/kg | MIC50 (streptococci): 0.06 µg/mL (≈ 80.1 nM) | MIC90 (streptococci): 0.12 µg/mL (≈ 160 nM) | MIC Range (streptococci): ≦0.008-0.5 μg/ml

CC[C@H]1OC(=O)[C@@](C)(F)C(=O)[C@H](C)[C@@H](OC2OC(C)CC(N(C)C)C2O)[C@@](C)(OC)C[C@@H](C)C(=O)[C@H](C)[C@H]2N(CCCCn3cc(-c4cccc(N)c4)nn3)C(=O)O[C@]12C (stereo partly shown) [CEM-101, 11-N-4-(3-aminophenyl)-[1,2,3]triazol-1-yl]-butyl}-5-desosaminyl-3-oxo-2-fluoro-erythronolide A,-11,12-cyclic carbamate]
MIC50 (M. pneumoniae): 0.032 ng/mL (≈ 0.0379 nM) | MIC Range (U. parvum): 0.002 to 0.031 µg/mL | MIC50 (U. parvum): 0.008 µg/mL (≈ 9.47 nM) | MIC90 (U. parvum): 0.016 µg/mL (≈ 18.9 nM) | ED50 (S. pyogenes 3029): 2.5 mg/kg | PD50 (S. pneumoniae [3]; S. pneumoniae (macrolide susceptible)): 6.0 mg/kg | PD50 (S. pneumoniae [3]; S. pneumoniae (mefR)): 23.2 mg/kg | PD50 (S. pneumoniae [3]; S. pneumoniae serotype 19A): 6.6 mg/kg | PD50 (S. pyogenes [4]; S. pyogenes (erythromycin R)): 5.1 mg/kg | PD50 (S. pyogenes [4]; S. pyogenes (macrolide susceptible)): 9.4 mg/kg | average log10 CFU/gram of abscess (S. pneumoniae [5]; 24 hours): about 3 log10 CFU/gram | average log10 CFU/gram of abscess (S. pneumoniae [5]; 48 hours): about 3 log10 CFU/gram | log decrease of CFU from untreated mice (S. pneumoniae [5]; abscess, 10 mg/Kg QD dose): 4.2 log10 | Average Log10 CFU/gram of Abscess (S. pyogenes ATCC 8668; 10 mg/Kg): 5.35 Log10 CFU/gram | Average Log10 CFU/gram of Abscess (S. pyogenes ATCC 8668; 20 mg/Kg): 2.53 Log10 CFU/gram | MIC50 [6]: ≤ 0.008 µg/mL | MIC90 [6]: 0.06 µg/mL (≈ 71 nM) | MIC Range [6]: ≦0.008-0.12 μg/ml | MIC (streptococci): 0.06 µg/mL (≈ 71 nM) | average PAE (H. influenzae ATCC 49247; Gram-negative pathogens): 4.5 h | PAE (H. influenzae ATCC 49247; H. influenzae ATCC 49247, 4X MIC, exposure 1 hour): 3.2 h
